Source: paper PMC6222759, “Chemical Constituents from Scindapsus officinalis (Roxb.) Schott. and Their Anti–Inflammatory Activities” (Molecules : A Journal of Synthetic Chemistry and Natural …, 2018)

Experiments:
in vitro = conditions: mouse
Protocol: (§1) The cytotoxicity against macrophage Raw 264.7 cells was investigated using the MTT assay. Briefly, after the Raw 264.7 cells were treated with the test compounds for 24 h, 50 μL of MTT (5 mg/mL) was added to each well, and the cells were incubated for an additional 4 h. After the formazan crystals formed, cell supernatants were removed and 100 μL of DMSO was added to dissolve the crystals. Absorbance for each well was analyzed in the same way as that for NO inhibition assay.

[1] = system: NO production in LPS-induced Raw 264.7 cells; test: Anti-inflammatory activity assay against NO production (Griess) in LPS-stimulated RAW 264.7 macrophages; format: cell-based, mouse; conditions: for IC50: Mus musculus, RAW264.7, LPS (1.0 μg/mL)-induced Raw 264.7 cells, 2 h pre-incubation, 24 h stimulation, mean ± SD, n = 3, read-out: IC50 NO (inhibitory effect on NO production); for Anti-inflammatory activity against nitric oxide production (in words): LPS-induced Raw 264.7 cells, compared with positive control dexamethasone
Protocol: (Raw 264.7 cells were subjected to compounds 3 and 7 with six different concentrations and incubated for 2 h firstly, and then stimulated by adding LPS for 24 h. Then, Griess reagents I and II were added to cell supernatants to detect the NO production levels. The cytotoxicity against macrophage Raw 264.7 cells of compounds 3 and 7 were investigated using the MTT method; NO: Inhibition rates of NO release (%); MTT: Inhibition rates of cell viability (%)).
The anti-inflammatory activity assay against NO production in RAW 264.7 mouse peritoneal macrophages was conducted mainly using the procedures described previously. […] After being stimulated for 24 h, 50 μL of cell supernatants were taken out from each well and mixed with an equal volume of Griess reagents I and II to detect the NO production levels by measuring absorbance at 570 nm. All experiments were performed in triplicate. The NO inhibition is calculated as the percentage reduction of LPS stimulation.

[2] = system: macrophage Raw 264.7 cells; test: Cytotoxicity against macrophage Raw 264.7 cells (MTT assay); conditions: MTT method; concentration of 20 μM
Protocol: as §1

Row | Structure (SMILES) | IC50 [1] | inhibition at 24 h, 20 µM (in vitro) | inhibition at 24 h, 20 µM (in vitro; Raw 264.7 macrophage cells) | Cell toxicity against macrophage Raw 264.7 cells (in words) [2] | Anti-inflammatory activity against nitric oxide production (in words) [1]
1 | CCCCCCOC1O[C@H](CO)[C@@H](O)[C@H](O)[C@H]1O (stereo partly drawn) [Compound 6, hexyl-O-β-D-Glucopyranoside] | > 100 µM |  | 1.2% |  | 
2 | COC(=O)c1cc(O)c(O)c(O)c1 [Compound 7, methyl gallate] | 18.9 ± 0.3 µM | 2.4% |  | neither showed any cell toxicity | moderate inhibitory effects
3 | CC(C)=C[C@@H]1CC=C[C@]1(C)OC1O[C@H](CO)[C@@H](O)[C@H](O)[C@H]1O (relative stereo) [Compound 1, (rel)-(1R, 5R)-1-Methyl-5-(2-methylprop-1-en-1-yl)cyclopent-2-en-1-O-β-D-glucopyranoside] | > 100 µM |  | 1.8% |  | 
4 | OC[C@H]1O[C@@H](OCCc2ccccc2)[C@H](O)[C@@H](O)[C@@H]1O [Compound 5, 2-phenylethyl β-D-Glucopyranoside] | > 100 µM |  | 4.5% |  | 
5 | C[C@@H]1C[C@H]2[C@@H]3CCC4=CC(=O)C=C[C@]4(C)[C@@]3(F)[C@@H](O)C[C@]2(C)[C@@]1(O)C(=O)CO [Dexamethasone, dexamethasone, reference compound] | 2.2 ± 0.02 µM |  |  |  | 

Now from value to molecule, other results behind:

Row | IC50 [1] | Structure (SMILES) | inhibition at 24 h, 20 µM (in vitro) | inhibition at 24 h, 20 µM (in vitro; Raw 264.7 macrophage cells) | Cell toxicity against macrophage Raw 264.7 cells (in words) [2] | Anti-inflammatory activity against nitric oxide production (in words) [1]
6 | > 100 µM | O=C(O)/C=C/c1ccc(O)c(O)c1 [Compound 4, caffeic acid] | 1.1% |  |  | 
7 | 12.2 ± 0.8 µM | COC(=O)/C=C1/C[C@H](O)[C@H](OC(=O)C=Cc2ccc(O)c(O)c2)[C@H]1O [Compound 3, (Z)-(1S,2S,5S)-2,5-Dihydroxy-3-(2-methoxy-2-oxoethylidene)cyclopentyl 3-(3,4-dihydroxyphenyl) acrylate] |  | 4.7% | neither showed any cell toxicity | moderate inhibitory effects
8 | > 100 µM | C=CCc1ccc(OC2O[C@H](CO)[C@@H](O[C@H]3[C@H](O)[C@@H](O)[C@H](OCC4(CC)CC4)O[C@@H]3CO)[C@H](O)[C@H]2O)c(OC)c1 (stereo partly drawn) [Compound 2, 2-Methoxy-4-(prop-2-enyl)-1″-(1-ethylcyclopropyl) methanol phenyl O-β-D-glucopyranosyl-(4→4)-β-D-glucopyranoside] |  | -0.5% |  | 
